Some results are limits rather than exact numbers.

The subject of this experiment is A-673 cells. As to the kind of experiment: Cell viability, crystal violet staining. The experiment is classed as cell-based. To be noted: Homo sapiens, A673, cell viability, read-out: A-673 IC50 (nM) Cell viability. On the procedure:
To measure cell viability, cells were plated in 96-well plastic tissue culture plates at a density of 5×10^3 cells/well. Twenty-four hours after plating, cells were treated with various SMSMs. After 72 hours, the cell culture media were removed and plates were stained with […] of a solution containing 0.5% crystal violet and 25% methanol, rinsed with deionized water, dried overnight, and resuspended in […] citrate buffer (0.1 M sodium citrate in 50% ethanol) to assess plating efficiency. Intensity of crystal violet staining, assessed at 570 nm and quantified using a Vmax Kinetic Microplate Reader and Softmax software (Molecular Devices Corp., Menlo Park, Calif.), were directly proportional to cell number. Data were normalized to vehicle-treated cells and were presented as the mean±SE from representative experiments. SMSMs that are effective were determined for various cells lines.
A-673 cell viability […], splicing (IC50) and brain AUC/Plasma AUC of SMSMs were determined. As shown in the tables below SMSMs had high CNS exposure.
The term IC50 denotes the concentration that gives 50% inhibition. `CN(c1ccc(-c2ccc(-n3ccc(C#N)c3)cc2O)nn1)[C@H]1C[C@]2(C)CC[C@](C)(C1)N2` [compound 203, 1-(4-(6-(((1R,3s,5S)-1,5-dimethyl-8-azabicyclo[3.2.1]octan-3-yl)(methyl)amino)pyridazin-3-yl)-3-hydroxyphenyl)-1H-pyrrole-3-carbonitrile]: the IC50 was in the range of 10 to 100 nM.
Take `CN(c1ccc(-c2ccc(-c3cc(F)nc(F)c3)cc2O)nn1)[C@H]1C[C@]2(C)CC[C@](C)(C1)N2` [compound 204, 5-(2,6-difluoropyridin-4-yl)-2-(6-(((1R,3s,5S)-1,5-dimethyl-8-azabicyclo[3.2.1]octan-3-yl)(methyl)amino)pyridazin-3-yl)phenol]: the IC50 fell in the range of 100 to 500 nM.
The value for `[2H]C([2H])([2H])Oc1cc(-c2ccc(-c3ccc(N(C)[C@H]4C[C@]5(C)CC[C@](C)(C4)N5)nn3)c(O)c2)cnn1` [compound 205, 2-(6-(((1R,3s,5S)-1,5-dimethyl-8-azabicyclo[3.2.1]octan-3-yl)(methyl)amino)pyridazin-3-yl)-5-(6-(methoxy-d3)pyridazin-4-yl)phenol] was below 10 nM.
In the case of `[2H]C([2H])([2H])Oc1cc(-c2cc(O)c(-c3ccc(N(C)[C@H]4C[C@]5(C)CC[C@](C)(C4)N5)nn3)cc2F)cnn1` [compound 206, 2-(6-(((1R,3s,5S)-1,5-dimethyl-8-azabicyclo[3.2.1]octan-3-yl)(methyl)amino)pyridazin-3-yl)-4-fluoro-5-(6-(methoxy-d3)pyridazin-4-yl)phenol], the IC50 was below 10 nM.
With `[2H]C([2H])([2H])Oc1cc(-c2ccc(-c3ccc(N(C)[C@H]4C[C@]5(C)CC[C@](C)(C4)N5)nn3)c(O)c2)cc(F)n1` [compound 207, 2-(6-(((1R,3s,5S)-1,5-dimethyl-8-azabicyclo[3.2.1]octan-3-yl)(methyl)amino)pyridazin-3-yl)-5-(2-fluoro-6-(methoxy-d3)pyridin-4-yl)phenol], the IC50 lay in the range of 10 to 100 nM.
The value for `[2H]C([2H])([2H])Oc1cc(-c2cc(O)c(-c3ccc(N(C)[C@H]4C[C@]5(C)CC[C@](C)(C4)N5)nn3)cc2F)cc(F)n1` [compound 208, 2-(6-(((1R,3s,5S)-1,5-dimethyl-8-azabicyclo[3.2.1]octan-3-yl)(methyl)amino)pyridazin-3-yl)-4-fluoro-5-(2-fluoro-6-(methoxy-d3)pyridin-4-yl)phenol] was above 1000 nM; that for `COc1cccc(-c2ccc(-c3ccc(N(C)[C@H]4C[C@]5(C)CC[C@](C)(C4)N5)nn3)c(O)c2)c1` [compound 209, 4-(6-(((1R,3s,5S)-1,5-dimethyl-8-azabicyclo[3.2.1]octan-3-yl)(methyl)amino)pyridazin-3-yl)-3′-methoxy-[1,1′-biphenyl]-3-ol] was above 1000 nM; that for `COc1cc(-c2ccc(-c3ccc(N(C)[C@H]4C[C@]5(C)CC[C@](C)(C4)N5)nn3)c(O)c2)ccc1F` [compound 210, 4-(6-(((1R,3s,5S)-1,5-dimethyl-8-azabicyclo[3.2.1]octan-3-yl)(methyl)amino)pyridazin-3-yl)-4′-fluoro-3′-methoxy-[1,1′-biphenyl]-3-ol] was 251 to 500 nM.
In the case of `COc1cncc(-c2ccc(-c3ccc(N(C)[C@H]4C[C@]5(C)CC[C@](C)(C4)N5)nn3)c(O)c2)c1` [compound 211, 2-(6-(((1R,3s,5S)-1,5-dimethyl-8-azabicyclo[3.2.1]octan-3-yl)(methyl)amino)pyridazin-3-yl)-5-(5-methoxypyridin-3-yl)phenol], the IC50 is 251 to 500 nM.
For `COc1cc(-c2cc(O)c(-c3ccc(N(C)[C@H]4C[C@]5(C)CC[C@](C)(C4)N5)nn3)cc2F)cnn1` [compound 213, 2-(6-(((1R,3s,5S)-1,5-dimethyl-8-azabicyclo[3.2.1]octan-3-yl)(methyl)amino)pyridazin-3-yl)-4-fluoro-5-(6-methoxypyridazin-4-yl)phenol], the IC50 is below 10 nM.
